Among the test systems are SN12C renal; CAKI-1 renal; SW-620 colon; MCF7 breast; DU-145 prostate; HOP-92 NSCLC; UO-31 renal; ACHN renal; NCI/ADR-RES ovarian; MDA-MB-435.
Common to all, as to assay: NCI-60 cell line screen, 48 h

Each structure is given as a SMILES string.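 The compound was tested at five concentrations on cells cultured in 96-well plates, with a 48-hour exposure period. At the GI50, growth is halved. TGI denotes the concentration required for complete inhibition of growth.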

In the case of `COc1ccc(/C=C/C(=O)c2cc3c(N)c(C(=O)Nc4ccccc4C)sc3nc2C)cc1`, the GI50 in the experiment with SN12C renal was 0.833 µM; in the experiment with CAKI-1 renal, 0.392 µM; with SW-620 colon, 0.83 µM; with MCF7 breast, 240 nM; in the experiment on DU-145 prostate, 0.431 µM; with HOP-92 NSCLC, 600 nM. Further, the figures for the GI50 in the experiment with UO-31 renal, in the experiment with ACHN renal and in the experiment on NCI/ADR-RES ovarian were 861 nM, 0.36 µM and 0.228 µM, respectively. Further, the TGI with SN12C renal was more than 50 µM; in the experiment on CAKI-1 renal, more than 50 µM; with SW-620 colon, more than 50 µM; in the experiment with MCF7 breast it was more than 50 µM; in the experiment with DU-145 prostate, more than 23.4 µM; in the experiment on HOP-92 NSCLC, 32.3 µM. Besides, the TGI in the experiment on UO-31 renal is more than 50 µM; with ACHN renal, more than 50 µM; with NCI/ADR-RES ovarian it was 2 µM.
`Cc1ccc(NC(=O)C2C(=O)N(c3ccc(C)c(C)c3)C(=O)/C2=N\NC(N)=S)cc1C` (centres undefined): the TGI in the experiment on SN12C renal, in the experiment on CAKI-1 renal, in the experiment with SW-620 colon, with HOP-92 NSCLC, in the experiment on UO-31 renal and in the experiment with ACHN renal was more than 100 µM throughout.
For `O=C(O)/C(=C\c1ccccc1Cl)S(=O)(=O)c1ccccc1`, the TGI with SN12C renal, with CAKI-1 renal, in the experiment on SW-620 colon, in the experiment with HOP-92 NSCLC, in the experiment with UO-31 renal and in the experiment with ACHN renal was more than 100 µM throughout.
With `c1cc(-c2cn[nH]c2)cc(-c2cn[nH]c2)c1`, the TGI is more than 100 µM in the experiment with SN12C renal; 83.9 µM with CAKI-1 renal; more than 100 µM in the experiment on SW-620 colon; more than 100 µM in the experiment with HOP-92 NSCLC; 58.4 µM in the experiment on UO-31 renal.
With `CC1CCP(=O)(c2ccccc2)CC1` (centres undefined), the TGI with SN12C renal, with CAKI-1 renal, with SW-620 colon, with UO-31 renal and in the experiment on ACHN renal was more than 100 µM in each case.
Regarding `COC1C(O)C(C)OC(OC2CC3CCC4C(CCC5(C)C(C6=CC(=O)OC6)CCC45O)C3(O)C(OC(C)=O)C2)C1O` (centres undefined), the TGI in the experiment with SN12C renal is 2.6 µM; with CAKI-1 renal, 3.43 µM; in the experiment on SW-620 colon, more than 36.7 µM; with DU-145 prostate, 1.65 µM; with HOP-92 NSCLC, 11.6 µM; with UO-31 renal it was 4.51 µM. Further, the TGI in the experiment on MDA-MB-435 came to 10.5 µM; in the experiment on ACHN renal, 2.13 µM; in the experiment with NCI/ADR-RES ovarian, 6.32 µM.
As for `Cn1c2ccccc2c(=O)c2c([N+](=O)[O-])ccc(NCCN)c21`, the TGI in the experiment with SN12C renal was determined as 17.2 µM; in the experiment on CAKI-1 renal it was 25.9 µM; in the experiment on SW-620 colon, 16.6 µM; in the experiment on HOP-92 NSCLC it was 20.2 µM; with UO-31 renal, 18.8 µM; with ACHN renal it was 19.7 µM.
As for `CN1CCN(c2ccc(NC3=C(Cl)C(=O)c4ncccc4C3=O)cc2C#N)CC1`, the GI50 is 1.55 µM in the experiment on SN12C renal; 1.09 µM in the experiment on CAKI-1 renal; 1.49 µM in the experiment on SW-620 colon; 2.99 µM with DU-145 prostate; 1820 nM in the experiment on HOP-92 NSCLC; 1340 nM in the experiment on UO-31 renal. For the same compound, the GI50 in the experiment with MDA-MB-435 is 1.91 µM; in the experiment on ACHN renal, 1.15 µM; in the experiment with NCI/ADR-RES ovarian, 4.56 µM. Further, the TGI is 3.25 µM in the experiment on SN12C renal; 2.31 µM with CAKI-1 renal; 3.62 µM with SW-620 colon; 15.5 µM in the experiment with DU-145 prostate; 3.45 µM in the experiment on HOP-92 NSCLC; 2.61 µM in the experiment with UO-31 renal. In addition, the figures for the TGI in the experiment with MDA-MB-435, in the experiment with ACHN renal and in the experiment with NCI/ADR-RES ovarian were 3.67 µM, 2.36 µM and 24.3 µM, respectively.
Turning to `CC(=O)/C=C/C1=C(c2cccs2)c2ccccc2CC1`, the GI50 is 23.5 µM in the experiment with SN12C renal; 41 µM in the experiment with CAKI-1 renal; 33.9 µM with SW-620 colon; 42.8 µM in the experiment on DU-145 prostate; 25700 nM in the experiment on UO-31 renal; 25.8 µM in the experiment on MDA-MB-435. Moreover, the GI50 in the experiment on ACHN renal is 22.5 µM; with NCI/ADR-RES ovarian, 27.3 µM. For the same compound, the TGI is 48.5 µM in the experiment on SN12C renal; more than 100 µM in the experiment on CAKI-1 renal; more than 100 µM in the experiment on SW-620 colon; more than 100 µM with DU-145 prostate; 86.4 µM with UO-31 renal; 51.3 µM with MDA-MB-435. Besides, the TGI in the experiment on ACHN renal worked out at 57.5 µM; in the experiment with NCI/ADR-RES ovarian, 81.7 µM.
Turning to `COc1cc(NCC2COc3c(ccc(OC)c3OC)C2=O)c([N+](=O)[O-])cc1OC` (centres undefined), the TGI in the experiment with SN12C renal, in the experiment on CAKI-1 renal, with SW-620 colon, with MCF7 breast, in the experiment on DU-145 prostate and in the experiment on UO-31 renal was more than 100 µM in each case. For the same compound, the TGI with MDA-MB-435, in the experiment with ACHN renal and in the experiment on NCI/ADR-RES ovarian was more than 100 µM each time.
With `CC(=O)[C-](C(C)=O)c1ccccc1.CC(=O)[C-](C(C)=O)c1ccccc1.CC[O-].CC[O-].[Ti+4]`, the GI50 in the experiment on SN12C renal was more than 100 µM; in the experiment on CAKI-1 renal, more than 100 µM; in the experiment with SW-620 colon it was more than 100 µM; in the experiment on HOP-92 NSCLC, more than 100000 nM; in the experiment with UO-31 renal, more than 100000 nM; with ACHN renal it was more than 100 µM. The TGI with SN12C renal, in the experiment with CAKI-1 renal, with SW-620 colon, in the experiment with HOP-92 NSCLC, in the experiment on UO-31 renal and in the experiment with ACHN renal was more than 100 µM throughout.
`O=C(Nc1ccccc1O)c1ccc(CNC(=O)c2sccc2Nc2ccnc(C(F)(F)F)c2)cc1`: the GI50 with SN12C renal is 13.7 µM; in the experiment on CAKI-1 renal, 6.63 µM; in the experiment with SW-620 colon, 5.36 µM; in the experiment with MCF7 breast, 2650 nM; in the experiment on DU-145 prostate, 6.1 µM; in the experiment with UO-31 renal, 2820 nM. For the same compound, the GI50 with MDA-MB-435 was 4.09 µM; in the experiment on ACHN renal, 4.95 µM; in the experiment with NCI/ADR-RES ovarian, 4.67 µM. Moreover, the TGI is 55.1 µM with SN12C renal; 23.9 µM in the experiment with CAKI-1 renal; 20.4 µM in the experiment on SW-620 colon; 41.8 µM in the experiment on MCF7 breast; 21 µM with DU-145 prostate; 15.9 µM with UO-31 renal. The TGI was found to be 17.8 µM in the experiment with MDA-MB-435, 26.5 µM in the experiment with ACHN renal and 46.9 µM with NCI/ADR-RES ovarian.
As to `COc1ccc(C(=O)C(C(=O)C(=O)Nc2nccs2)c2ccc(OC)cc2)cc1` (centres undefined), the TGI in the experiment on SN12C renal, in the experiment on CAKI-1 renal, in the experiment with SW-620 colon, in the experiment with HOP-92 NSCLC, in the experiment on UO-31 renal and in the experiment with ACHN renal was more than 100 µM in each case.

These data come from PubChem BioAssay (NCI).
